These results are taken from patent publication US20240300943A1, “NOVEL SALTS OF HETEROCYCLIC COMPOUND AS PROTEIN KINASE INHIBITOR AND USES THEREOF” (HK INNO.N CORPORATION, priority 2021, published 2024).

The test system of assay [1] is HDM-induced animal model (NC/Nga mice). The assay can be described thus: HDM-induced atopic dermatitis model (topical). Type of assay: in vivo. How it is done:
After the back of the ears and neck of the NC/Nga mice was shaved with a razor, a proper amount of depilatory was applied and depilation was performed. After the depilatory was wiped out, about 100 mg of an atopic dermatitis-inducing reagent (Biostir, Japan) was uniformly applied to the back of the ears and neck using a micro pipette tip.
After hair removal was performed using a razor as needed, 150 μL of 4% SDS aqueous solution was uniformly applied to the back of the ears and neck using a micro pipette. After drying with cold air using a dryer, the solution was naturally dried for about two to three hours. About 100 mg of the AD-inducing reagent was uniformly applied to the back of the ears and neck using a micro pipette tip. All treatments were performed 11 times twice a week for a total of six weeks.
As a test material, an appropriate amount of phosphate in Compound 1 obtained according to Example 3 was weighed and then prepared by dissolving in a local vehicle (acetone:DMSO-7:1 v/v). At the time of preparation and administration, the test material was maintained in a light-shielding state, and was prepared and used every three days under the conditions of light-shielding refrigeration.
The administration of the test material was started from the time when the atopic score reached 2.1 to 2.3 points, and was directly applied to the center of the skin twice/day until the day of autopsy from the start date of administration of the test material (Day 0) for three weeks.
The AD-inducing material was applied and sensitized 24 hours before the autopsy, and the drug was administered and applied one hour before the autopsy. […]
To evaluate atopic dermatitis, evaluation of a skin clinical index (Matsuda et al., 1997) was performed from week 0 of the onset of atopic dermatitis. […] After that, the sum of the scores for each item was evaluated as a final grade.
An IgE concentration in blood was analyzed with serum obtained by centrifuging the blood collected on the day of autopsy, and IL-1B, IL-4, IL-13, TNF-α, IL-6, and IL-31 were analyzed using the extracted skin. […]

In a further assay the test system is JAK1, Tyk2. The assay can be described thus: Human whole blood assay, JAK1, Tyk2. Type of assay: cell-based. The note with it: cytokine-induced STAT phosphorylation. How it is done:
A stock solution of Compound 1 obtained according to Preparation Example 1 was diluted with distilled water and then serially diluted at ⅕ with 4% DMSO. 5 μL of test material was added to 100 μL of whole blood collected using a 1.7 mL eppendorf tube, mixed, and incubated at 37° C. for 45 minutes.
IL-6 (10 μg/ml) was diluted with 0.1% BSA/DW to reach 1 μg/mL each. 5 μL of IL-6 was added (at a final concentration of 50 ng/mL) and incubated at 37° C. for 15 minutes. At this time, 5 μL of DPBS was added as a non-stimulated control group. Lyse/fix buffer 5× was diluted 1× in distilled water and used. […]
For double staining of CD4 and pSTATI, anti-[…] and anti-pSTATI were mixed in a staining buffer and added to each of the samples. […] On the next day, the results were analyzed using FACSCanto II. […]
The numerical values analyzed by FlowJo were calculated to obtain IC50 values using GraphPad Prism 5 software (product name).
No treatment response (NTR) was set as a reference, and the degree of the phosphorylation of STAT induced by cytokines was converted into a relative ratio (% control group). A dose-response plot was obtained for each concentration-dependent activity of each test material using GraphPad Prism (version 5.0) and ICso values were calculated.

`C[C@@H]1CN(C(=O)CC#N)CC=C1c1cc(NC(=O)C2CC2)nc2[nH]ccc12` [Compound 1, (S)—N-(4-(1-(2-cyanoacetyl)-3-methyl-1,2,3,6-tetrahydropyridin-4-yl)-1H-pyrrolo[2,3-b]pyridin-6-yl)cyclopropanecarboxamide]: the Atopic dermatitis-related cytokines entry in assay [1] (skin, FIG. 30) is given as “decrease in atopic dermatitis-related cytokines”. Besides, in assay [1] (twice/day for three weeks, FIG. 29), the “Serum IgE levels” value is “decreased compared to the control group”. Further, the midpoint of inhibition in the assay with JAK1, Tyk2, the IC50, lay at 168 nM.
On to `C[C@@H]1CN(C(=O)CC#N)CC=C1c1cc(NC(=O)C2CC2)nc2[nH]ccc12` [Example 3, (S)—N-(4-(1-(2-cyanoacetyl)-3-methyl-1,2,3,6-tetrahydropyridin-4-yl)-1H-pyrrolo[2,3-b]pyridin-6-yl)cyclopropanecarboxamide], for which the “Skin severity scores (clinical atopic dermatitis score)” value in assay [1] (twice/day for three weeks, all dosed groups, FIG. 28) is listed as “significantly reduced”.
